Data set [1] deals with T1, ERK2 (Homo sapiens, UniProt P28482).
T1 construct: purchased R&D 1879-KS-010
The data set can be described thus: ERK2 enzyme activity test (ADP-Glo Kinase Assay). Particulars: ADP-Glo chemiluminescence. It is filed as biochemical. As to the method:
The purpose of this experiment is to detect the inhibitory ability of the compounds of the present disclosure on the ERK2 enzyme activity, and to evaluate the in vitro activity of the compounds based on the IC50. The ADP-Glo™ Kinase Assay Kit was used in this experiment. The substrate was phosphorylated under the action of the enzyme and ADP was produced at the same time. The ADP-Glo reagent was added to remove the unreacted ATP in the reaction system, and the ADP produced by the reaction was detected with kinase detection reagent. In the presence of the compound, the inhibition rate of the compound was calculated by measuring the signal value.
Preparation of enzyme and substrate: ERK2 (1879-KS-010, R&D) and substrate (custom peptide, Gill Biochemical) were prepared to 0.75 ng/ml and 1500 μM in a buffer (40 mM Tris, 20 mM MgCl2, 0.1 mg/ml BSA, 50 μM DTT), and then the enzyme solution and the substrate solution were prepared into a mixed solution at a volume ratio of 2:1 for later use. ATP was diluted to 500 μM with buffer. The compound was dissolved in DMSO (dimethyl sulfoxide, Shanghai Titan Scientific Co., Ltd.) to prepare a stock solution with an initial concentration of 20 mM, and then Bravo was used to prepare the compound. Finally, 3 μL of a mixed solution of enzyme and substrate, and 1 μL substrate of different concentrations of the compound (the initial concentration is 50 μM, 4-fold dilution) were added to each well of the 384-well plate, and the plate was incubated at 30° C. for 10 minutes, and finally 1 μL 500 μM ATP solution was added to each well, and the plate was incubated at 30° C. for 2 hours. Then 5 μL of ADP-Glo was added, and the plate was incubated at 30° C. for 40 minutes. Then 10 μL of kinase detection buffer was added, and the plate was incubated at 30° C. for 40 minutes. The 384-well plate was taken out and placed in a microplate reader (BMG labtech, PHERAstar FS), and the chemiluminescence was measured by a microplate reader.
Microsoft Excel, Graphpad Prism 5 was used to process and analyze the data.

Data set [2] can be described thus: Pharmacokinetics assay in mice. In kind it is in vivo. The conditions noted are these: female, mouse, po, C57 mice, intragastric, 2 mg/kg, plasma. Here is the method: Mice were used as test animals. The drug concentration in plasma at different time points was determined by LC/MS/MS method after administration of the compounds 1-P2, 2-P2, 4-P2, 6-P2, 9-P2, 10-P2 and 11-P2. The pharmacokinetic behavior of the compounds of the present disclosure was studied and evaluated in mice.
Sixty-three C57 mice (female, equally divided into seven groups) were purchased from Shanghai Jiesijie Laboratory Animal Co., LTD. (Certificate No.: SCXK(Shanghai)2013-0006).
A certain amount of the test compound was weighed, dissolved in 5% of DMSO by volume and 5% of tween 80, followed by the additon of 90% of normal saline to prepare a 0.1 mg/mL colorless, clear and transparent solution.
After an overnight fast, C57 mice were intragastrically administered the test compound at an administration dose of 2 mg/kg and an administration volume of 0.2 ml/10 g.
The mice were intragastrically administered the test compounds. 0.1 ml of blood was taken before the administration and at 0.25, 0.5, 1.0, 2.0, 4.0, 6.0, 8.0, 11.0 and 24.0 hours after the administration. The samples were stored in heparinized tubes, and centrifuged for 10 minutes at 3500 rpm to separate the blood plasma. The plasma samples were stored at −20° C.
The content of the test compound in the plasma of mice after intragastrical administration of the test compound at different concentrations was determined: 25 μL of […] plasma at each time point after the administration was taken, followed by the addition of 50 μL of the internal standard camptothecin solution (100ng/mL) and 200 μL of acetonitrile. The resulting solution was vortex-mixed for 5 minutes, and centrifuged for 10 minutes (4000 rpm). 4 μL of the supernatant was taken from the plasma samples for LC/MS/MS analysis.

T1 sequence (P28482 2-360 limits assumed): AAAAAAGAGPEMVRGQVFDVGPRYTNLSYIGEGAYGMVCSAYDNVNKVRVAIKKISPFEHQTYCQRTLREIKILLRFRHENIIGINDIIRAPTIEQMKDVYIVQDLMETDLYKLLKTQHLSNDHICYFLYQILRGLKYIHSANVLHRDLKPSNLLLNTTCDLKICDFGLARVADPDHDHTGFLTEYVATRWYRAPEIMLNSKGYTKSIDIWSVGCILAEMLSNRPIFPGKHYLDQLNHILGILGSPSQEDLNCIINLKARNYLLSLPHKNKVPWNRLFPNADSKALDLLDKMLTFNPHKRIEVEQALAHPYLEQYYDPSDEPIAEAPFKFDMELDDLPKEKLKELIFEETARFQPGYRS

Turning to `COc1cc(F)cc([C@@H](CO)NC(=O)[C@H](C)N2CCc3cc(-c4nc(NC5CCOCC5)ncc4Cl)cn3C2=O)c1` [Example 2-P1, (S)-2-(6-(5-Chloro-2-((tetrahydro-2H-pyran-4-yl)amino)pyrimidin-4-yl)-1-oxo-3,4-dihydropyrrolo[1,2-c]pyrimidin-2(1H)-yl)-N-((S)-1-(3-fluoro-5-methoxyphenyl)-2-hydroxyethyl)propanamide], the IC50 in data set [1] was found to be 336 nM.
Molecule `COc1cc(F)cc([C@@H](CO)NC(=O)[C@H](C)N2CCn3cc(-c4nc(NC5CCOCC5)ncc4Cl)cc3C2=O)c1` [Example 4-P1, (S)-2-(7-(5-Chloro-2-((tetrahydro-2H-pyran-4-yl)amino)pyrimidin-4-yl)-1-oxo-3,4-dihydropyrrolo[1,2-a]pyrazin-2(1H)-yl)-N-((S)-1-(3-fluoro-5-methoxyphenyl)-2-hydroxyethyl)propanamide] had an IC50 in data set [1] of 819 nM.
`COc1cc(F)cc([C@@H](CO)NC(=O)[C@H](C)N2CCn3cc(-c4nc(Nc5ccnn5C)ncc4C)cc3C2=O)c1` [Example 12-P1, (S)-N-((S)-1-(3-Fluoro-5-methoxyphenyl)-2-hydroxyethyl)-2-(7-(5-methyl-2-((1-methyl-1H-pyrazol-5-yl)amino)pyrimidin-4-yl)-1-oxo-3,4-dihydropyrrolo[1,2-a]pyrazin-2(1H)-yl)propanamide] registered an IC50 in data set [1] of 948 nM.
With `COc1cc(F)cc([C@@H](CO)NC(=O)[C@H](C)N2Cc3cc(-c4nc(NC5CCOCC5)ncc4Cl)cn3C2=O)c1` [Example 6-P1, (S)-2-(6-(5-Chloro-2-((tetrahydro-2H-pyran-4-yl)amino)pyrimidin-4-yl)-3-oxo-1H-pyrrolo[1,2-c]imidazol-2(3H)-yl)-N-((S)-1-(3-fluoro-5-methoxyphenyl)-2-hydroxyethyl)propanamide], inhibition in data set [1] was half-maximal at 2540 nM (IC50).
The same measure, in the same setting: in the case of `COc1cc(F)cc([C@@H](CO)NC(=O)[C@H](C)N2Cc3cc(-c4nc(Nc5ccnn5C)ncc4C)cn3C2=O)c1` [Example 8-P1, (S)-N-((S)-1-(3-Fluoro-5-methoxyphenyl)-2-hydroxyethyl)-2-(6-(5-methyl-2-((1-methyl-1H-pyrazol-5-yl)amino)pyrimidin-4-yl)-3-oxo-1H-pyrrolo[1,2-c]imidazol-2(3H)-yl)propanamide] it was 2120 nM; in that of `Cc1cccc([C@@H](CO)NC(=O)C(C)N2CCn3cc(-c4nc(NC5CCOCC5)ncc4Cl)nc3C2=O)c1` (stereo partly drawn) [Example 5, 2-(2-(5-Chloro-2-((tetrahydro-2H-pyran-4-yl)amino)pyrimidin-4-yl)-8-oxo-5,6-dihydroimidazo[1,2-a]pyrazin-7(8H)-yl)-N-((S)-2-hydroxy-1-(m-tolyl)ethyl)propanamide], 3.6 nM; in that of `Cc1cccc([C@@H](CO)NC(=O)[C@H](C)N2CCc3cc(-c4nc(NC5CCOCC5)ncc4Cl)cn3C2=O)c1` [Example 11-P1, (S)-2-(6-(5-Chloro-2-((tetrahydro-2H-pyran-4-yl)amino)pyrimidin-4-yl)-1-oxo-3,4-dihydropyrrolo[1,2-c]pyrimidin-2(1H)-yl)-N-((S)-2-hydroxy-1-(m-tolyl)ethyl)propanamide], 75 nM.
In data set [1], `COc1cc(F)cc([C@@H](CO)NC(=O)[C@@H](C)N2Cc3cc(-c4nc(Nc5ccnn5C)ncc4C)cn3C2=O)c1` [Example 8-P2, (R)-N-((S)-1-(3-Fluoro-5-methoxyphenyl)-2-hydroxyethyl)-2-(6-(5-methyl-2-((1-methyl-1H-pyrazol-5-yl)amino)pyrimidin-4-yl)-3-oxo-1H-pyrrolo[1,2-c]imidazol-2(3H)-yl)propanamide] yielded an IC50 of 26 nM.
On the same count and under the same terms, in the case of `COc1cc(F)cc([C@@H](CO)NC(=O)[C@H](C)N2CCn3cc(-c4nc(N[C@@H](C)CO)ncc4Cl)nc3C2=O)c1` [Example 14-P1, (S)-2-(2-(5-Chloro-2-(((S)-1-hydroxypropan-2-yl)amino)pyrimidin-4-yl)-8-oxo-5,6-dihydroimidazo[1,2-a]pyrazin-7(8H)-yl)-N-((S)-1-(3-fluoro-5-methoxyphenyl)-2-hydroxyethyl)propanamide] it was 1530 nM.
Turning to `COc1cc(F)cc([C@@H](CO)NC(=O)[C@@H](C)N2CCn3cc(-c4nc(N[C@@H](C)CO)ncc4Cl)nc3C2=O)c1` [Example 14-P2, (R)-2-(2-(5-Chloro-2-(((S)-1-hydroxypropan-2-yl)amino)pyrimidin-4-yl)-8-oxo-5,6-dihydroimidazo[1,2-a]pyrazin-7(8H)-yl)-N-((S)-1-(3-fluoro-5-methoxyphenyl)-2-hydroxyethyl)propanamide], the IC50 in data set [1] worked out at 4.9 nM.
As to `COc1cc(F)cc([C@@H](CO)NC(=O)[C@@H](C)N2CCn3cc(-c4nc(N[C@@H](C)CO)ncc4Cl)cc3C2=O)c1` [Example 15, (R)-2-(7-(5-Chloro-2-(((S)-1-hydroxypropan-2-yl)amino)pyrimidin-4-yl)-1-oxo-3,4-dihydropyrrolo[1,2-a]pyrazin-2(1H)-yl)-N-((S)-1-(3-fluoro-5-methoxyphenyl)-2-hydroxyethyl)propanamide], half-maximal inhibition in data set [1] (IC50) required 28.7 nM.
In turn, `COc1cc(F)cc([C@@H](CO)NC(=O)[C@H](C)N2CCc3cc(-c4nc(Nc5ccnn5C)ncc4C)cn3C2=O)c1` [Example 1-P1, (S)-N-((S)-1-(3-Fluoro-5-methoxyphenyl)-2-hydroxyethyl)-2-(6-(5-methyl-2-((1-methyl-1H-pyrazol-5-yl)amino)pyrimidin-4-yl)-1-oxo-3,4-dihydropyrrolo[1,2-c]pyrimidin-2(1H)-yl)propanamide] gave an IC50 in data set [1] of 811 nM.
In data set [1], `COc1cc(F)cc([C@@H](CO)NC(=O)[C@@H](C)N2Cc3cc(-c4nc(NC5CCOCC5)ncc4Cl)cn3C2=O)c1` [Example 6-P2, (R)-2-(6-(5-Chloro-2-((tetrahydro-2H-pyran-4-yl)amino)pyrimidin-4-yl)-3-oxo-1H-pyrrolo[1,2-c]imidazol-2(3H)-yl)-N-((S)-1-(3-fluoro-5-methoxyphenyl)-2-hydroxyethyl)propanamide] registered a concentration for half-maximal inhibition (IC50) of 7.5 nM. In addition, the Vd/F in data set [2] (read-out: Apparent distribution volume Vz/F) stood at 7.74 L/kg. Further, the AUC in data set [2] (read-out: Area under curve AUC) was 1740 ng·h/mL. Besides, the CL/F in data set [2] (read-out: Clearance CLz/F) stood at 18.9 mL/min/kg. For the same molecule, the half-life in data set [2] (read-out: Half-life T1/2 (converted)) was 4.74 h. Moreover, the Cmax in data set [2] (read-out: Plasma concentration Cmax) stood at 1310 ng/mL. The MRT in data set [2] (read-out: Residence time MRT) was determined as 1.39 h.
In data set [1], `Cc1cccc([C@@H](CO)NC(=O)[C@@H](C)N2CCn3cc(-c4ccnc(Nc5ccnn5C)n4)cc3C2=O)c1` [Example 18-P2, (R)-N-((S)-2-Hydroxy-1-(m-tolyl)ethyl)-2-(7-(2-((1-methyl-1H-pyrazol-5-yl)amino)pyrimidin-4-yl)-1-oxo-3,4-dihydropyrrolo[1,2-a]pyrazin-2(1H)-yl)propanamide] yielded an IC50 of 5.5 nM.

The values above are taken from US20220204512A1, “SUBSTITUTED FUSED BICYCLIC DERIVATIVE, PREPARATION METHOD THEREFOR, AND APPLICATION THEREOF IN MEDICINES” (Jiangsu Hengrui Medicine Co., Ltd., priority 2019, published 2022).
